Patent publication US6833377B2, “Composition and method for potentiating drugs” (priority 2001, dated 2004)
“And” between values parts separate entries of the source, which are not always exact repeats. Equal values may be shown once.

Columns and labels:
reflex of tail flicking = test: Tail-flick test (analgesic effect); format: in vivo, rats; conditions: drug alone
Experimental: For these studies, solutions of the composition of the invention were used, which. were prepared using distilled water immediately before administration. The solutions were administered either orally (IG), by a rigid metal probe into the cardiac section of the stomach at a total amount of 0.8 ml, or intramuscularly (IM) at an amount of 0.2 ml, 30 min before testing.
The analgesic effect of the components was estimated by an extension of the latent period of the reflex of tail flicking in the “tail-flick” test [Woolf C. J., Barret G. D., Mitchel D., Myers R. A. (1977) Eur. J. Pharmacol. 45(3);311-314] and of the reflex of hind leg flicking in the hyperalgesia test [Coderre T. J., Melzack R. Brain Res. (1987) 404(1-2):95-106].
For the “tail-flick” test, hyperalgesic rats were selected (latent period of tail flicking on placing into water with a temperature of 51° C. was 3-4 sec).

[1] = test system: rats with MPTP-depression; test: Porsolt's test, rats with MPTP depression (MPTP 15 mg/kg IM); format: in vivo; conditions: drug alone
Experimental: (§1) Antidepressive effects was studied by Porsolt's test [Porsolt R. D., Anton G., Blavet N., Jalfre M. Eur. J. Pharmacol.(1978), 47(4):379-91]. For each rat under study, the total immobilization time was determined during 10 min of forced swimming in a glass vessel at a water temperature of 22° C. The animals were subdivided into three groups according to their immobilization time: highly-, medium- and low-active (immobilization time below 80 sec. 100-140 sec and above 150 sec, respectively).
(§2) I. N., Kryzhanovskii G. N. Biull. Eksp. Biol. Med. (1995) 120(8): 160-3] 30 min before testing at a dose of 15 mg/kg. […] (60 min before a repeated examination in Porsolt's test), and also to low-active rats 30 min. before a repeated study in Porsolt's test.
(§3) To determine the degree of potentiation of the effect of antidepressants, their minimal effective dose within the compositions, which caused a maximal antidepressive effect (immobilization time—below 80 s) in low-active rats and in rats with MPTP-depression was determined.

low-active rats = test: Porsolt's test, low-active rats; format: in vivo; conditions: drug alone
Experimental: as §1, §2, §3

[2] = test system: behavioral depression caused by a toxic dose of MPTP; test: Forced swimming test after a toxic dose of MPTP (30 mg/kg IM); format: in vivo, rats
Experimental: In a forced swimming test, the ability of amitriptyline and its compositions to eliminate the effect of toxic doses of MPTP was studied. Single administration of high MPTP doses (30 mg/kg) causes acute suppression of motor activity (akinesis), catalepsy, and muscular rigidity. Antidepressants reduce behavioral depression caused by a single administration of toxic doses of MPTP. The behavioral depression was studied in a forced swimming test of a group of active rats after the administration of a toxic dose of MPTP (30 mg/kg IM). Swimming duration (maximal swimming duration—10 min) and the time of forced immobilization during the first 5 min of swimming (under the condition that swimming duration exceeds 5 min) was estimated in the forced swimming test 30 min after MPTP administration. Drugs were administered IM or IG 30 min before MPTP administration.
To estimate the potentiation of the effects of amitriptyline (its ability to reduce toxic effects of MPTP), the minimal effective dose of amitriptyline in the composition, which increased swimming time up to 9-10 min and reduced immobilization time during the first 5 min of swimming down to 20-30 sec was determined.

phenaminic stereotypy [3] = test: Potentiation of phenaminic stereotypy (psychostimulant effect of phenamine); format: in vivo, rats; conditions: phenamine + distilled water
Experimental: The potentiation of the effect of psychostimulants was studied using the model of phenaminic stereotypy [Kuczenski R., Schmidt D., Leith N. Brain Res. (1977), 126(1):117-29]. Phenamine at a dose of 10 mg/kg IM, or 20 mg/kg IG, causes a marked behavioral stereotypy. To estimate the potentiation effect of phenamine, a phenamine dose in the IM or IG introduced composition was determined, which causes the same stereotypy as phenamine alone at a dose of 10 mg/kg, IM or 20 mg/kg, IG.

MK-toxicity = MK-toxicity (behavioral toxicity caused by MK-801); format: in vivo, rats; conditions: haloperidol alone, at this dose only ataxia eliminated, MK-toxicity only partially eliminated
Experimental: (§4) Antipsychotic effect of neuroleptics was studied using the model of behavioral toxicity “MK-toxicity” caused by a blocker of NMDA receptors MK-801 (Lapin T. P., Rogawski M. A. Behav. Brain Res. (1995) 70(2):145-151) and a model of phenaminic stereotypy caused by phenamine (Kuczenski R., Schmidt D, Leith N. Brain Res. (1977), 126(1):117-129).
(§5) The minimal effective dose of the neuroleptic haloperidol necessary to completely prevent the development of “MK-toxicity” (MK-801 at a dose of 0.4 mg/kg IM) and phenaminic stereotypy (phenamine at a dose of 10 mg/kg IM) in 80% of the rats was calculated. To estimate the potentiation of the antipsychotic effect of haloperidol, the minimal effective dose of haloperidol in compositions, which completely prevents the development of MK-toxicity and phenaminic stereotypy in rats, was determined.

phenaminic stereotypy [4] = test: Phenaminic stereotypy (antipsychotic effect of haloperidol); format: in vivo, rats; conditions: haloperidol alone, phenamine 10 mg/kg IM
Experimental: as §4, §5

[5] = test system: catalepsy caused by haloperidol; test: Haloperidol catalepsy (inclined grid); format: in vivo, rats; conditions: for Minimal effective dose of memantine eliminating catalepsy (immobilization time on an inclined grid below 40 seconds), haloperidol 1 mg/kg / Minimal effective dose of memantine eliminating catalepsy (immobilization time on an inclined grid below 40 seconds), haloperidol 3 mg/kg: memantine alone; for Minimal effective dose of memantine eliminating catalepsy (immobilization time on an inclined grid below 40 seconds), haloperidol 3 mg/kg: catalepsy only partially eliminated at this dose (immobilization time 60-70 seconds)
Experimental: Haloperidol catalepsy is a test for selecting anti-parkinson agents [Campbell A., Baldessarini R. J. Cremens M. C. Neuropharmacology (1988), 27(11):1197-9; Ossowska K. J. Neural. Transm. Park. Dis. Dement. Sect. (1994) 8(1-2):39-71]. Catalepsy degree was estimated by the immobilization time (in sec) of a rat placed on a coarse-mesh grid at an angle of 45° during a 3-minute exposition [Campbell A., Baldessarini R. J., Cremens M. C. Neuropharmacology (1988) 27(11):1197-9 ] 30, 60, 90 and 120 minutes after haloperidol administration. Maximal catalepsy was attained in 40-60 minutes after haloperidol administration (immobilization time on the grid was 140-180 sec) and lasted from 2 to 6 hours depending on the dose of haloperidol (1 or 3 mg/kg). The minimal effective dose of the anti-parkinson agent memantine causing a maximal anticataleptic effect (immobilization time on an inclined grid less than 40 sec) 1 hour after haloperidol administration at a dose of 1 and 3 mg/kg was calculated.
To estimate the potentiation effect of memantine, the minimal effective dose of memantine in the composition causing a maximal anticataleptic effect was determined.

[6] = IG, amitriptyline 30 mg/kg, alone or with phenylephrine 0.004 mg/kg
[7] = IM, amitriptyline 30 mg/kg, alone or with phenylephrine 0.002 mg/kg (text b94: 0.003)

## CN1CC[C@]23c4c5ccc(O)c4O[C@H]2[C@@H](O)C=C[C@H]3[C@H]1C5 [Morphine, morphine]
Reflex of tail flicking; IG
  Minimal effective dose of the analgesic causing maximal analgesia in tail-flick test (latent period of tail flicking reflex more than 30 sec): 3 ± 0.35 mg/kg
Reflex of tail flicking; IG, listed as morphine
  Minimal effective dose of the analgesic causing maximal analgesia in tail-flick test (latent period of tail flicking reflex more than 30 sec): 3 mg/kg
Reflex of tail flicking; IM
  Minimal effective dose of the analgesic causing maximal analgesia in tail-flick test (latent period of tail flicking reflex more than 30 sec): 3.0 ± 0.37 mg/kg
Reflex of tail flicking; IM, listed as morphine
  Minimal effective dose of the analgesic causing maximal analgesia in tail-flick test (latent period of tail flicking reflex more than 30 sec): 3 mg/kg

## CN(C)CCC=C1c2ccccc2CCc2ccccc21 [Amitriptyline, amitriptyline]
[1]; IG
  Minimal effective dose of the antidepressant causing a maximal antidepressive effect (immobilization time below 80 sec), highly active rats with MPTP depression: 2.5 ± 0.5 mg/kg
[1]; IG, listed as amitriptyline
  Minimal effective dose of the antidepressant causing a maximal antidepressive effect (immobilization time below 80 sec), highly active rats with MPTP depression: 2.5 mg/kg
[1]; IM
  Minimal effective dose of the antidepressant causing a maximal antidepressive effect (immobilization time below 80 sec), highly active rats with MPTP depression: 7.0 ± 0.8 mg/kg
[1]; IM, listed as amitriptyline
  Minimal effective dose of the antidepressant causing a maximal antidepressive effect (immobilization time below 80 sec), highly active rats with MPTP depression: 7.2 mg/kg
low-active rats; IG
  Minimal effective dose of the antidepressant causing a maximal antidepressive effect (immobilization time below 80 sec), low-active rats: 2.0 ± 0.24 mg/kg
low-active rats; IG, listed as amitriptyline
  Minimal effective dose of the antidepressant causing a maximal antidepressive effect (immobilization time below 80 sec), low-active rats: 2 mg/kg
low-active rats; IM
  Minimal effective dose of the antidepressant causing a maximal antidepressive effect (immobilization time below 80 sec), low-active rats: 5.2 ± 0.6 mg/kg
low-active rats; IM, listed as amitriptyline
  Minimal effective dose of the antidepressant causing a maximal antidepressive effect (immobilization time below 80 sec), low-active rats: 5.0 mg/kg
[2]; [6]
  Duration of forced swimming until drowning 30 min after MPTP 30 mg/kg (maximal recorded time 600 seconds): 340 s and 340 ± 37 s
  Immobilization time during the first 5 minutes of forced swimming, 30 min after MPTP 30 mg/kg: 78 s and 78 ± 8.5 s
[2]; IM, amitriptyline 20 mg/kg
  Duration of forced swimming until drowning 30 min after MPTP 30 mg/kg (maximal recorded time 600 seconds): 220 ± 25 s
[2]; [7]
  Duration of forced swimming until drowning 30 min after MPTP 30 mg/kg (maximal recorded time 600 seconds): 410 s and 410 ± 46 s
  Immobilization time during the first 5 minutes of forced swimming, 30 min after MPTP 30 mg/kg: 61 s and 61 ± 6.3 s

## CC(N)Cc1ccccc1 (stereo not drawn) [Phenamine, phenamine]
Phenaminic stereotypy [3]; IG
  Dose of phenamine causing the same behavioral stereotypy as phenamine 10 mg/kg IM: 20.2 ± 2.3 mg/kg
Phenaminic stereotypy [3]; IG, listed as phenamine
  Dose of phenamine causing the same behavioral stereotypy as phenamine 10 mg/kg IM: 20 mg/kg
Phenaminic stereotypy [3]; IM
  Dose of phenamine causing the same behavioral stereotypy as phenamine 10 mg/kg IM: 10.0 ± 1.1 mg/kg
Phenaminic stereotypy [3]; IM, listed as phenamine
  Dose of phenamine causing the same behavioral stereotypy as phenamine 10 mg/kg IM: 10 mg/kg

## Cc1c(N(C)CS(=O)(=O)[O-])c(=O)n(-c2ccccc2)n1C.[Na+] [Dipyrone]
Reflex of tail flicking; IG
  Minimal effective dose of the analgesic causing maximal analgesia in tail-flick test (latent period of tail flicking reflex more than 30 sec): 20 mg/kg and 20 ± 2.3 mg/kg

## O=C(CCCN1CCC(O)(c2ccc(Cl)cc2)CC1)c1ccc(F)cc1 [Haloperidol, haloperidol]
MK-toxicity; IG
  Minimal effective dose of haloperidol completely preventing MK-toxicity (MK-801 0.4 mg/kg IM): > 1 mg/kg
MK-toxicity; IG, listed as haloperidol
  Minimal effective dose of haloperidol completely preventing MK-toxicity (MK-801 0.4 mg/kg IM): > 1 mg/kg
MK-toxicity; IM
  Minimal effective dose of haloperidol completely preventing MK-toxicity (MK-801 0.4 mg/kg IM): > 1 mg/kg
MK-toxicity; IM, listed as haloperidol
  Minimal effective dose of haloperidol completely preventing MK-toxicity (MK-801 0.4 mg/kg IM): > 1 mg/kg
Phenaminic stereotypy [4]; IG
  Minimal effective dose of haloperidol completely preventing phenaminic stereotypy in 80% of rats: 0.18 ± 0.022 mg/kg
Phenaminic stereotypy [4]; IG, listed as haloperidol
  Minimal effective dose of haloperidol completely preventing phenaminic stereotypy in 80% of rats: 0.18 mg/kg
Phenaminic stereotypy [4]; IM
  Minimal effective dose of haloperidol completely preventing phenaminic stereotypy in 80% of rats: 0.15 ± 0.017 mg/kg
Phenaminic stereotypy [4]; IM, listed as haloperidol
  Minimal effective dose of haloperidol completely preventing phenaminic stereotypy in 80% of rats: 0.15 mg/kg

## CC12CC3CC(C)(C1)CC(N)(C3)C2 [Memantine, memantine]
[5]; IG
  Minimal effective dose of memantine eliminating catalepsy (immobilization time on an inclined grid below 40 seconds), haloperidol 1 mg/kg: 11.5 mg/kg and 11.5 ± 1.2 mg/kg
  Minimal effective dose of memantine eliminating catalepsy (immobilization time on an inclined grid below 40 seconds), haloperidol 3 mg/kg: > 16.0 mg/kg
[5]; IG, listed as memantine
  Minimal effective dose of memantine eliminating catalepsy (immobilization time on an inclined grid below 40 seconds), haloperidol 3 mg/kg: > 16 mg/kg
[5]; IM
  Minimal effective dose of memantine eliminating catalepsy (immobilization time on an inclined grid below 40 seconds), haloperidol 1 mg/kg: 7.5 ± 0.7 mg/kg
  Minimal effective dose of memantine eliminating catalepsy (immobilization time on an inclined grid below 40 seconds), haloperidol 3 mg/kg: > 15.0 mg/kg
[5]; IM, listed as memantine
  Minimal effective dose of memantine eliminating catalepsy (immobilization time on an inclined grid below 40 seconds), haloperidol 3 mg/kg: > 15 mg/kg
  Minimal effective dose of memantine eliminating catalepsy (immobilization time on an inclined grid below 40 seconds), haloperidol 1 mg/kg: 7.5 mg/kg
[5]; memantine 15 mg/kg IM
  Immobilization time of rats on an inclined grid, catalepsy caused by haloperidol 3 mg/kg: 60 to 70 s
[5]; memantine 16 mg/kg IG
  Immobilization time of rats on an inclined grid, catalepsy caused by haloperidol 3 mg/kg: 60 to 70 s

## CNCCC(Oc1ccc(C(F)(F)F)cc1)c1ccccc1 (stereo not drawn) [Fluoxetine]
[1]; IM
  Minimal effective dose of the antidepressant causing a maximal antidepressive effect (immobilization time below 80 sec), highly active rats with MPTP depression: 16.2 mg/kg and 16 ± 2.1 mg/kg
low-active rats; IG
  Minimal effective dose of the antidepressant causing a maximal antidepressive effect (immobilization time below 80 sec), low-active rats: 5.5 mg/kg and 5.5 ± 0.7 mg/kg
low-active rats; IM
  Minimal effective dose of the antidepressant causing a maximal antidepressive effect (immobilization time below 80 sec), low-active rats: 10.6 mg/kg and 10.6 ± 1.2 mg/kg
